According to patent US11299496B2, “Ligands for alpha-7 nicotinic acetylcholine receptors and methods of treating neurological and inflammatory conditions” (Northeastern University, priority 2014, dated 2022):

Legend:
human alpha-7 nAChR [1] = molecular target: T1, human alpha-7 nAChR (Homo sapiens, UniProt P36544); assay: Two-electrode voltage clamp of alpha-7 nAChR expressed in Xenopus oocytes (net charge); type: cell-based; settings: area under the curve of current vs. time; for Charge Alone: compound alone acting as an allosteric agonist; for Charge +C: compound together with choline or ACh, includes PAM and ago-PAM activity
T1 construct: expressed in transfected cells; host or cells: Xenopus laevis oocytes (cRNA injection)
T1 sequence (P36544 23-502): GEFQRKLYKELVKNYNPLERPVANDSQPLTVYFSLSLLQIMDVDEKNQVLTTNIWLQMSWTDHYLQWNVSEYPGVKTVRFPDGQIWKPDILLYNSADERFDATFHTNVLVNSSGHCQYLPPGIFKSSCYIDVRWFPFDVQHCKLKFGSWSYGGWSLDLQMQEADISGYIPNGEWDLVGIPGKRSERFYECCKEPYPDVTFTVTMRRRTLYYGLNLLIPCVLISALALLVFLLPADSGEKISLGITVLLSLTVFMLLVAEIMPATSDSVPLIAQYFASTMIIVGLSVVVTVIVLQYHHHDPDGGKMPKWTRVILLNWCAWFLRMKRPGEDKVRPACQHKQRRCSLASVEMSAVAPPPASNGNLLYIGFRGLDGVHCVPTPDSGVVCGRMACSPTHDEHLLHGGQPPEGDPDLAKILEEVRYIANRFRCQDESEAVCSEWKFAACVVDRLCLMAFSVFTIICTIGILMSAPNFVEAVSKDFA
Procedure, shortened: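 Human α7 nAChR co-expressed with RIC-3 in Xenopus oocytes; two-electrode clamp at −60 mV, 12 s applications in Ringer's pH 7.3. Net charge integrated over 120 s from application, normalized to prior ACh controls; measured for compound alone and with choline or ACh; n≥4 oocytes.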

human alpha-7 nAChR [2] = molecular target: T1, human alpha-7 nAChR; assay: Electrophysiological evaluation of PAMs and ago-PAMs in Xenopus oocytes (direct activation, direct and primed potentiation); type: cell-based; settings: for direct activation when applied alone / primed potentiation of subsequent responses to ACh applied alone: FIGS. 2A-2F; for peak efficacy in the presence of ACh: GAT154 vs GAT155
Description: Electrophysiological evaluation in Xenopus oocytes was used to determine the potency and efficacy with which PAMs and ago-PAMs of the invention produce self-induced agonism and positive allosteric modulation of the orthosteric, agonist-induced activation of the alpha-7 nAChR. The ability of these compounds to increase the maximal channel influx and to enhance the activity of the receptor on its own as well as in presence of choline is denoted by Imax and EC50 respectively. The details of cDNA clones and RNA for injection was as published. Thakur et. al. 2013, J. Med. Chem. 2013 Nov. 14; 56(21):8943-7. doi: 10.1021/jm401267t). For experiments involving PAM and ago-PAM analogs, where standard levels of expression result in ion currents too large to be recorded in voltage clamp, experiments were typically conducted 1-3 days after RNA injection.
Two-electrode voltage clamp was conducted using OpusXpress 6000A (Molecular Devices, Union City, Calif.). Both the voltage and current electrodes were filled with 3 M KCl. Oocytes were voltage-clamped at −60 mV except when determining the effect of voltage on channel activation. The oocytes were bath-perfused with Ringer's solution (115 mM NaCl, 2.5 mM KCl, 1.8 mM CaCl2, 10 mM HEPES, and 1 μM atropine, pH 7.2) with a flow rate of 2 mL/min. To evaluate the effects of experimental compounds on ACh-evoked responses of alpha-7 nAChRs expressed in oocytes, the initial control responses were measured with two applications of ACh alone, before applications of experimental drugs alone or co-applications with ACh. The agonist solutions were applied from a 96-well plate via disposable tips, and the drugs were either co-applied with ACh by the OpusXpress pipette delivery system or bath-applied using the OpusXpress system to switch the running buffer. Drug applications were for 12 s followed by a 181 s washout period and usually alternated between controls and test solutions. After experimental drug applications, follow-up control applications of ACh were made to determine primed potentiation, desensitization or rundown of the receptors. Data were collected at 50 Hz, filtered at 20 Hz, analyzed by Clampfit 9.2 (Molecular Devices) and Excel (Microsoft, Redmond Wash.), and normalized to the averaged current of the two initial control responses. Data were expressed as mean±SEM from at least four oocytes for each experiment. For the concentration-response relationships, responses were normalized to the net charge of the most adjacent prior control.
A detailed comparative activity profile of select ago-PAMs/PAMs based on the structure of 4BP-TQS was obtained. […] They also functioned as direct PAMs, producing responses when co-applied with ACh. However, the primed potentiation of response to ACh alone was less after direct potentiation than after direct activation, due to residual induction of PAM-insensitive desensitization.

CCI mice = assay: Chronic constriction injury (CCI) model, mechanical allodynia (von Frey); type: in vivo, mouse; settings: for threshold for pain in the CCI model: dose of 1 mg/kg, FIG. 5B
Description: Mice were anesthetized with pentobarbital (45 mg/kg, i.p.). An incision was made just below the hipbone, parallel to the sciatic nerve. The right common sciatic nerve was exposed at the level proximal to the sciatic trifurcation, and a nerve segment 3-5 mm long was separated from surrounding connective tissue. Two loose ligatures with 6-0 silk suture were made around the nerve with a 1.0-1.5 mm interval between them. Muscles were closed with suture thread and the wound with wound clips. […] Any suture that remained after two weeks was removed from the healed surgical wound. Mechanical allodynia (von Frey test) was measured before and after drug injections.
The antiallodynic effects of test compounds were assessed in three experiments consisting of CCI mice and sham control mice. […] The anti-allodynic effects of alpha-7 nAChRs PAMs and ago-PAMs were tested (four doses and vehicle control, N=10 mice/group, administered i.p.) in the CCI model. Mice were assessed for mechanical allodynia 2 weeks after the CCI surgery. All these studies will be conducted in blinded manner. CCI and sham control mice received two conditioning sessions per day (vehicle in the morning and drug in the afternoon) over the course of 3 days, and were tested for a place preference on day 7 without any injections.
Pain behavioral data are presented as mean±S.E.M. (see FIGS. 5A and 5B). Statistical analysis was performed using the t-test or two-way analysis of variance test, followed by the post-hoc Bonferroni's test. All differences were considered significant at p<0.05, and significant differences are shown with asterisks in FIGS. 5A and 5B. ED50 values with 95% confidence limits (CL) were calculated by unweighted least-squares linear regression.

Solubility comparison = type: physicochemical
alpha-7 nAChRs = alpha-7 nAChRs (Homo sapiens, UniProt P36544); settings: cited from earlier work
Chain of alpha-7 nAChRs (P36544 23-502): as above

Charge Alone (human alpha-7 nAChR [1])	Charge +C (human alpha-7 nAChR [1])	direct activation when applied alone (human alpha-7 nAChR [2])	primed potentiation of subsequent responses to ACh applied alone (human alpha-7 nAChR [2])	peak efficacy in the presence of ACh (human alpha-7 nAChR [2])	Structure (SMILES)	reversal of CCI effect (CCI mice; 1 mg/kg)	threshold for pain in the CCI model (CCI mice)	effectiveness relative to GAT155 in the CCI model (CCI mice; same dose of 1 mg/kg)	effect on sham mice (CCI mice; sham control mice)	solubility compared to GAT107 (Solubility comparison)	maximal response larger than ACh (alpha-7 nAChRs; agonist efficacy relative to ACh)	EC50 lower than ACh (alpha-7 nAChRs; agonist potency relative to ACh)
48	1145	directly activated human alpha-7 nAChR	large primed potentiation	almost equal peak efficacy	NS(=O)(=O)c1ccc2c(c1)[C@H]1C=CC[C@H]1[C@@H](c1ccc(Br)s1)N2 (stereo in doubt) [Compound 36, 4-(5-bromothiophen-2-yl)-3a,4,5,9b-tetrahydro-3H-cyclopenta[c]quinoline-8-sulfonamide]	completely reversed the effect	effective in increasing the threshold for pain	twice as effective at every time point	without showing any significant effect on the sham mice	significantly better solubility compared to GAT107	–	–
–	–	–	–	–	NS(=O)(=O)c1ccc2c(c1)C1C=CCC1C(c1ccc(Br)cc1)N2 (racemic) [Compound 4BP-TQS, 4-(4-bromophenyl)-3a,4,5,9b-tetrahydro-3H-cyclopenta[c]quinoline-8-sulfonamide]	–	–	–	–	–	45 fold	8 fold
0	163	negligible direct activation	large primed potentiation	almost equal peak efficacy	NS(=O)(=O)c1ccc2c(c1)[C@H]1C=CC[C@H]1[C@@H](c1cc(Br)cs1)N2 (stereo in doubt) [Compound 37, 4-(4-bromothiophen-2-yl)-3a,4,5,9b-tetrahydro-3H-cyclopenta[c]quinoline-8-sulfonamide]	–	effective in increasing the threshold for pain	–	–	significantly better solubility compared to GAT107	–	–
